From patent US8461338B2, “(1R, 1′R)-atracurium salts separation process” (Chemagis Ltd., priority 2007, dated 2013)

Key:
[1] = Stability of cisatracurium salt in different eluent mixtures (HPLC assay of isomer content over time); type: physicochemical; conditions: for % of the 1R-cis,1′R-cis isomer in the eluent composition: room temperature
Experimental: Table 6 illustrates how the amount of the 1R-cis,1′R-cis isomer changes at room temperature as a function of time in 3 different eluent mixtures. The (1R,1′R)-atracurium besylate isomer mixture was dissolved in the eluent and the resulting solutions were allowed to stand at room temperature for a period of 26 hours. After certain time intervals, as specified in Table 6, samples were withdrawn from each one of the 3 solutions and assayed by HPLC to determine the amount of the 1R-cis,1′R-cis isomer in the mixture.
The stability of the cisatracurium salt in the eluent mixture at 25° C. is presented in FIG. 1 whereby two plots are compared, that is, the plot describing the stability of the 1R-cis,1′R-cis isomer in the eluent mixture of 80:10:10 dichloromethane:DMSO:formic acid of the present invention (Column A in Table 6) vs. the plot of the dichloromethane:MeOH:benzenesulfonic acid eluent system, described in U.S. Pat. No. 5,556,978, example 2 (Column C in Table 6).

[2] = cited from earlier work

COc1ccc(C[C@@H]2c3cc(OC)c(OC)cc3CC[N@+]2(C)CCC(=O)OCCCCCOC(=O)CC[N@@+]2(C)CCc3cc(OC)c(OC)cc3[C@H]2Cc2ccc(OC)c(OC)c2)cc1OC [1R-cis,1′R-cis isomer, (1R,1′R,2R,2′R)-2,2′-[1,5-pentanediylbis[oxy(3-oxo-3,1-propanediyl)]]bis[1-[(3,4-dimethoxyphenyl)methyl]-1,2,3,4-tetrahydro-6,7-dimethoxy-2-methyl-isoquinolinium dibenzenesulfonate]
change of the content of the 1R-cis,1′R-cis isomer in the eluent mixture ([1]; dichloromethane:DMSO:formic acid eluent mixture, after 26 hours): remains unchanged | decrease of the content of the 1R-cis,1′R-cis isomer in the eluent mixture ([1]; dichloromethane:methanol:benzenesulfonic acid eluent (U.S. 5,556,978, example 2), after 26 hours at room temperature): more than 3% | % of the 1R-cis,1′R-cis isomer in the eluent composition ([1]; eluent A dichloromethane:DMSO:formic acid 80:10:10, 0 hours): 55.1% | % of the 1R-cis,1′R-cis isomer in the eluent composition ([1]; eluent A dichloromethane:DMSO:formic acid 80:10:10, 2 hours): 55.4% | % of the 1R-cis,1′R-cis isomer in the eluent composition ([1]; eluent A dichloromethane:DMSO:formic acid 80:10:10, 11 hours): 55.2% | % of the 1R-cis,1′R-cis isomer in the eluent composition ([1]; eluent A dichloromethane:DMSO:formic acid 80:10:10, 12 hours): 55.1% | % of the 1R-cis,1′R-cis isomer in the eluent composition ([1]; eluent A dichloromethane:DMSO:formic acid 80:10:10, 24 hours): 55.3% | % of the 1R-cis,1′R-cis isomer in the eluent composition ([1]; eluent A dichloromethane:DMSO:formic acid 80:10:10, 26 hours): 55.4% | % of the 1R-cis,1′R-cis isomer in the eluent composition ([1]; eluent B dichloromethane:DMSO:benzenesulfonic acid 90:10:0.006, 0 hours): 55.3% | % of the 1R-cis,1′R-cis isomer in the eluent composition ([1]; eluent B dichloromethane:DMSO:benzenesulfonic acid 90:10:0.006, 2 hours): 55.3% | % of the 1R-cis,1′R-cis isomer in the eluent composition ([1]; eluent B dichloromethane:DMSO:benzenesulfonic acid 90:10:0.006, 11 hours): 55.3% | % of the 1R-cis,1′R-cis isomer in the eluent composition ([1]; eluent B dichloromethane:DMSO:benzenesulfonic acid 90:10:0.006, 12 hours): 55.3% | % of the 1R-cis,1′R-cis isomer in the eluent composition ([1]; eluent B dichloromethane:DMSO:benzenesulfonic acid 90:10:0.006, 24 hours): 55.3% | % of the 1R-cis,1′R-cis isomer in the eluent composition ([1]; eluent B dichloromethane:DMSO:benzenesulfonic acid 90:10:0.006, 26 hours): 55.2% | % of the 1R-cis,1′R-cis isomer in the eluent composition ([1]; eluent C dichloromethane:methanol:benzenesulfonic acid 4000:500:0.5, 0 hours): 55.3% | % of the 1R-cis,1′R-cis isomer in the eluent composition ([1]; eluent C dichloromethane:methanol:benzenesulfonic acid 4000:500:0.5, 2 hours): 54.9% | % of the 1R-cis,1′R-cis isomer in the eluent composition ([1]; eluent C dichloromethane:methanol:benzenesulfonic acid 4000:500:0.5, 11 hours): 53.4% | % of the 1R-cis,1′R-cis isomer in the eluent composition ([1]; eluent C dichloromethane:methanol:benzenesulfonic acid 4000:500:0.5, 12 hours): 53.7% | % of the 1R-cis,1′R-cis isomer in the eluent composition ([1]; eluent C dichloromethane:methanol:benzenesulfonic acid 4000:500:0.5, 24 hours): 52.6% | % of the 1R-cis,1′R-cis isomer in the eluent composition ([1]; eluent C dichloromethane:methanol:benzenesulfonic acid 4000:500:0.5, 26 hours): 52.0% | rate of loss in potency ([2]; at 25° C. (77° F.)): approximately 5 % per month | rate of loss of potency ([2]; under refrigeration (5° C.)): approximately 5 % per year
